# ChEMBL document CHEMBL3244158, “Dimerization of coralyne and its propyl analogue and their association with DNA” (J Med Chem, 1979)
# Active and inactive are the calls of the source. The calls are words filed in the database; no cut-off is given here.
# System: Calf thymus DNA
# Test: Binding affinity to calf thymus DNA at 0.033 to 0.995 ligand to DNA ratio by spectrophotometer analysis
# Type: nucleic-acid assay
# Settings: Bos taurus
row,Activity,Structure (SMILES)
1,Active,COc1cc2cc3c4cc(OC)c(OC)cc4cc[n+]3c(C)c2cc1OC
2,Active,CCCc1c2cc(OC)c(OC)cc2cc2c3cc(OC)c(OC)cc3cc[n+]12
